From PMC7762957, “Snapshots during the catalytic cycle of a histidine acid phytase reveal an induced-fit structural mechanism” (The Journal of Biological Chemistry, 2020) come the findings set out here.

One series concerns the target T1, EcAppA (Escherichia coli, UniProt P07102).
T1 construct: gene appA; pOPINB, N-terminal cleavable His tag, cytoplasmic expression in E. coli Shuffle Express T7; Ni-NTA and gel filtration
T1 sequence (P07102 23-432): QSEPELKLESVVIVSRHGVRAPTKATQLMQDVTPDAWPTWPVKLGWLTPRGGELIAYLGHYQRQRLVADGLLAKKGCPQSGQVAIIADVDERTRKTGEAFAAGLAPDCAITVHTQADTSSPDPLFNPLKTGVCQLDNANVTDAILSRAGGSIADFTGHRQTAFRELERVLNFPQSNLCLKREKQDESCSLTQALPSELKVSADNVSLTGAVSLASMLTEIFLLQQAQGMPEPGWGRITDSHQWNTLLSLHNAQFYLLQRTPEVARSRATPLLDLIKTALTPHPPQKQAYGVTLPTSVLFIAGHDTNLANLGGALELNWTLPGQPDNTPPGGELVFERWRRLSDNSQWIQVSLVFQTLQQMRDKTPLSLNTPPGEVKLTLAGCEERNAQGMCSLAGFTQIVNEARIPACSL
As to the kind of experiment: HPLC of inositol polyphosphate products. It counts as biochemical. Conditions: pH 5.5, 200 mM sodium acetate, 150 mM NaCl; 1 mM substrate, 25 nM enzyme.

The next series addresses T2, AnPhyA (Aspergillus niger, UniProt P34752).
T2 construct: gene phyA; codon-optimised, N-terminal 3C site, C-terminal His6; secreted from Pichia pastoris KM71H; Ni-NTA purified
T2 sequence (P34752 24-467): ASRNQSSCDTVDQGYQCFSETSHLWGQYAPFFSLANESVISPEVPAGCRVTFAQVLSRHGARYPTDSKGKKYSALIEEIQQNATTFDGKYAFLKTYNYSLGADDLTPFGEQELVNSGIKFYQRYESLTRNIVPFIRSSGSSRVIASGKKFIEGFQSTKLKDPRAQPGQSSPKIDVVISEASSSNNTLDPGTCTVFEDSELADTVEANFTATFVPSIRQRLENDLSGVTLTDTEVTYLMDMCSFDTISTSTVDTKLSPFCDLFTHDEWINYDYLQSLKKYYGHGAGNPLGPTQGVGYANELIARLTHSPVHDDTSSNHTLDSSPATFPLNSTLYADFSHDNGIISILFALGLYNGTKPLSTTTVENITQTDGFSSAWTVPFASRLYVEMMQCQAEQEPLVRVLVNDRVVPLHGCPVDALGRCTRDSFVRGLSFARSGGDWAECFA
The experiment in a line: HPLC of inositol polyphosphate products. It counts as biochemical. Conditions: pH 5.5, 200 mM sodium acetate, 150 mM NaCl; 1 mM substrate, 25 nM enzyme.

The target in another series is T3, BtMINPP (Bacteroides thetaiotaomicron, UniProt Q89YI8).
T3 construct: gene BT_4744
T3 sequence (Q89YI8 21-425): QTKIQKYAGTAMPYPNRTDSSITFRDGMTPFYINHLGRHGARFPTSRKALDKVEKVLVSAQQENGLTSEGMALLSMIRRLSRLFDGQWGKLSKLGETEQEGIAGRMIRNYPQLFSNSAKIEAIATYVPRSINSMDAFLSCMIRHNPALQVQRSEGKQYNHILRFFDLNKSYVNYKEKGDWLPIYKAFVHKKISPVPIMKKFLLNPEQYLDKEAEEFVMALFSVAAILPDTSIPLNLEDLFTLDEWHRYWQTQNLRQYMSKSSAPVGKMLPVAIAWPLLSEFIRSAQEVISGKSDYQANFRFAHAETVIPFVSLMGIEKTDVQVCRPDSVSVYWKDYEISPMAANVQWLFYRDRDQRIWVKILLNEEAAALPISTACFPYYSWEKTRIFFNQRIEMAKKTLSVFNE
The experiment in a line: HPLC of inositol polyphosphate products. It is filed as biochemical. Conditions: pH 5.5, 200 mM sodium acetate, 150 mM NaCl; 1 mM substrate, 25 nM enzyme.

Another series concerns the target BlMINPP (Bifidobacterium longum, UniProt B7GTV0). The experiment in a line: X-ray crystal structure of complex, […] A. It is filed as binding. Conditions: non-hydrolysable substrate analogue in active site, two orientations; co-crystallised with 1 mM InsS6. Set-up: gene Blon_0263; N-terminal His6 tag cleaved (WT: pOPINF, 3C protease; variants: pET28a, thrombin); E. coli Rosetta(DE3) pLysS.

Substrate in the series “purified protein”: O=P(O)(O)O[C@H]1[C@H](OP(=O)(O)O)[C@@H](OP(=O)(O)O)[C@H](OP(=O)(O)O)[C@@H](OP(=O)(O)O)[C@H]1OP(=O)(O)O
As to the kind of experiment: purified protein. Conditions: pH 5.5, 200 mM sodium acetate, 0.15 M NaCl, room temperature, 25 nM enzyme.

`O=P(O)(O)O[C@H]1[C@H](OP(=O)(O)O)[C@@H](OP(=O)(O)O)[C@H](OP(=O)(O)O)[C@@H](OP(=O)(O)O)[C@H]1OP(=O)(O)O` [InsP6, myo-Inositol 1,2,3,4,5,6-hexakisphosphate]: the “HPLC of inositol polyphosphate products” value on EcAppA is recorded as “E.coli AppA, which is accepted to possess high positional specificity”; at AnPhyA it was “products of InsP6 hydrolysis by BlMINPP, BtMINPP, A. niger PhyA (AnPhyA)”; on BtMINPP it was “HPLC chromatograms of the products of InsP6 hydrolysis by BlMINPP, BtMINPP”.

Consider `O=S(=O)(O)O[C@H]1[C@H](OS(=O)(=O)O)[C@@H](OS(=O)(=O)O)[C@H](OS(=O)(=O)O)[C@@H](OS(=O)(=O)O)[C@H]1OS(=O)(=O)O` [InsS6], for which the “X-ray crystal structure of complex, 1.84 A” value on BlMINPP is given as “A crystal of the purified recombinant enzyme grown in the presence of an excess InsS6”.

B1: BlMINPP (Bifidobacterium longum subsp. infantis ATCC 15697 = JCM 1222 = DSM 20088) (protein)
chain: MEADGRYYSSKQPYVAPNDATASSYSKAPKGYGPIYTESMARHGSRGLSSYKYDALLMRMAETAARDGGFKSEAIKAEFVKNLSGITAANVENGYGMLTGQGAQQHYGIGERAYQRNRSLFDQAAADGGTIAYQSSGEARATESGENFEKGFNEASGGRLIGNVSAPTNPADSGNGKDFQKNPDTLYFHKVQNPDGTSKVPGTKAYDIANNYQNFVANDATIAGAEKTIGDNVDVKRASHDLLSQIFTEEFLAKLENGEYKWYNTTDGTKKGGKNCAPGADASKDPDACGEVSKKIKSEYDAAMDLYNLYIIAADMHNENTGDHTFAFDQYFQGAYADDARMFAWALDAEDFYEKGPSYAGQNETYSIAQPLLDDFLNTIDARVNGGSTVATFRFAHAETMMPFAALLGLPGSTQQAPASTTDVYTYGNNEWRGESVTPMAANVQWDVYARKGEDPATGQRYTPIVRMLYNENEVPFRSECTPVADGSTWYKLTELKSCLAADHKTLGQDARI
By Km is commonly meant the concentration of substrate that gives half-maximal velocity. The term kcat denotes the maximal rate divided by the concentration of active sites. What is called kcat/Km is the second-order rate constant that governs catalysis at low substrate concentration. With B1, in the series “purified protein”, the Km stood at 54.5 ± 8.4 µM, the turnover number (kcat) was found to be 46.8 s⁻¹ and the kcat/Km amounted to 900000 M⁻¹ s⁻¹.
